The text below walks through data of patent US4317817A, “Novel steroid 5α-reductase inhibitors” (Richardson-Merrell Inc., priority 1980, dated 1982).

Test [1] concerns 5α-reductase. The test can be described thus: Affinity (Ki, Km) for 5α-reductase. The format is biochemical. From the text: The potency of any enzyme inhibitor is often expressed in terms of its inhibition constant, Ki, which is defined mathematically in terms of established relationships of enzyme-catalyzed reaction rates to inhibitor and substrate concentrations. […] In the case of the substrate, the corresponding value is known as the Km, the relationship to combining power being roughly the same.

In test [2] the test system is testosterone 5α-reductase. The test can be described thus: Inhibition of 5α-reductase isolated from rat prostate gland (prostate microsomes, 4-14C-testosterone). It counts as biochemical. The settings on record: testosterone 2×10^-6 M, microsomes equivalent to 180 mg fresh tissue.
Test [3] has as its system preputial glands. The test can be described thus: Preputial gland weight in castrated male rats treated with testosterone. It counts as in vivo. The settings on record: 200 mg/kg gavage every 8 hours for 8 days plus testosterone 0.6 mg/rat s.c. daily; compared to control rats.
For test [4], the system named is ventral prostate. The test can be described thus: Prostate weight in castrated male rats treated with testosterone (benign prostatic hypertrophy procedure). It counts as in vivo. Conditions: 200 mg/kg gavage every 8 hours for 8 days plus testosterone 0.6 mg/rat s.c. daily; compared to testosterone only (Group II). The protocol: The effectiveness of the present compounds for the treatment of benign prostatic hypertrophy can be illustrated by the following procedure using 3 groups of castrated male rats. Starting 10 days after castration, Test Group I (5 animals) received 200 mg/kg of (5α,20R) -4-diazo-21-hydroxy-20-methylpregnan-3-one, given by gavage every 8 hours for 8 days as a suspension in 0.25 % aqueous Methocel. Starting 8 hours after the first dose of test compound, the animals also received testosterone daily at a dose of 0.6 mg/rat s.c. in olive oil. The last dose of test compound was administered 8 hours after the last dose of testosterone and the animals were sacrificed 8 hours later. Test Group II (12 animals) received only the testosterone treatment described above while the third group of rats (10 animals) served as controls and received the oral and s.c. vehicles only. At sacrifice, the ventral prostate was removed and weighed.

`C[C@]12CC[C@H]3[C@@H](CCC4=CC(=O)CC[C@@]43C)[C@@H]1CC[C@@H]2O` [testosterone, reference compound]: the Km in test [1] (substrate) was found to be 1 µM.

In the case of `C[C@@H](CO)[C@H]1CC[C@H]2[C@@H]3CC[C@H]4C(=[N+]=[N-])C(=O)CC[C@]4(C)[C@H]3CC[C@]12C` [(5α,20R)-4-Diazo-21-hydroxy-20-methylpregnan-3-one], the “inhibition of the conversion of testosterone to 5α-reduced products” value in test [2] (inhibitor 3×10^-7 M) was determined as 75%. The “inhibition of the conversion of testosterone to DHT and androstanediol (ADIOL) overall” value in test [2] (inhibitor 3×10^-8 M) is given as 49%. Also, in test [3], the “weights of preputial glands” value is “significantly less than weights of preputial glands of the control rats”. The “prostatic weight (ventral prostate)” value in test [4] is recorded as “significant reduction in prostatic weight”.

Consider `CC(CO)[C@H]1CC[C@H]2[C@@H]3CCC4=CC(=O)CC[C@]4(C)[C@H]3CC[C@]12C` (stereo partly drawn) [reference compound], for which the affinity in test [1], expressed as Ki, was 220 nM.

For the compound `C[C@H](CO)[C@H]1CC[C@H]2[C@@H]3CC[C@H]4C(=[N+]=[N-])C(=O)CC[C@]4(C)[C@H]3CC[C@]12C`, in test [1], the Ki stood at 35 nM. Further, the “affinity for the enzyme relative to the substrate (testosterone)” value in test [1] (vs Km of testosterone) is 29 times. Besides, the “potency relative to the previous inhibitor” value in test [1] (vs previously known inhibitor of the comparison) turned out to be 6.3 times.
